Publication PMC6530925 (Nature metabolism, 2019)

Molecular target: T1, Slc12a8 (Mus musculus, UniProt Q8VI23)
T1 sequence (Q8VI23 1-705): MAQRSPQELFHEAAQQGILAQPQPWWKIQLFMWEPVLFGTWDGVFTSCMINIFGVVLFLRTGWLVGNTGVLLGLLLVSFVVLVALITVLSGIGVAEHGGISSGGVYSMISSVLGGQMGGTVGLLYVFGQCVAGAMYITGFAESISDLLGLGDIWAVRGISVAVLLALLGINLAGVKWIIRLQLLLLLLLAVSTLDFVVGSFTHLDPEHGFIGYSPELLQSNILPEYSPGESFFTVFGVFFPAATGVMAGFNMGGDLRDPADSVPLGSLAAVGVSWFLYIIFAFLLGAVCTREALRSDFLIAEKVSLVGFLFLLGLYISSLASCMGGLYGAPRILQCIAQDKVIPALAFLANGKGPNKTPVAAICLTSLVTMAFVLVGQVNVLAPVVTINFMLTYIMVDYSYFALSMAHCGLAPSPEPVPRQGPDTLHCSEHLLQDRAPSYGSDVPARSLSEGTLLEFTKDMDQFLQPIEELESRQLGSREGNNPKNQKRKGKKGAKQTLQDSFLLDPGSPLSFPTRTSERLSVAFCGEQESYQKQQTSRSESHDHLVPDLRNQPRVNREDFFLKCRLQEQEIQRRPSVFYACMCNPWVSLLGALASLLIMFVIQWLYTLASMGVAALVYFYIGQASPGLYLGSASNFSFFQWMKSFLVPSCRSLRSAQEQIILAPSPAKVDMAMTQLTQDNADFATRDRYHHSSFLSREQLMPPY
Assay: 3H-NMN uptake into Slc12a8-OE proteoliposomes with cold NMN competition
Assay type: biochemical

IC50: 22.8 ± 3.6 µM
Structure (SMILES): NC(=O)c1ccc[n+]([C@@H]2O[C@H](COP(=O)([O-])O)[C@@H](O)[C@H]2O)c1 [NMN, Nicotinamide mononucleotide]
